≈ marks a conversion by molar mass, not a printed value.

Three compounds from DBAASP can be followed below.

Some test systems named below: Enterococcus faecalis; Escherichia coli W3110; Staphylococcus aureus; Aspergillus fumigatus; Bibersteinia trehalosi; Klebsiella pneumoniae; Pasteurella multocida.
Test in all cases: ≥ marks a high value that may be exact or a test limit, other limits are often not marked, values filed in µg/mL are converted to µM
Experiment [1] relates to Pseudomonas aeruginosa PAK.
For experiment [2], the system named is Streptococcus gordonii Challis DL1.
The test system of experiment [3] is Streptococcus mitis ATCC 903.
Experiment [4] has as its system Streptococcus mutans UA159.
In experiment [5] the test system is Streptococcus sanguinis NY101.
Experiment [6] deals with Streptococcus sobrinus ATCC 33478.
Experiment [7] has as its system Corynebacterium pseudotuberculosis ATCC 19410.
Experiment [8] concerns Mannheimia haemolytica Serovar 1.
The subject of experiment [9] is Mannheimia haemolytica Serovar 2.
In experiment [10] the test system is Mannheimia haemolytica Serovar 6.
In experiment [11] the test system is Pseudomonas aeruginosa PAO1.
Experiment [12] has as its system Salmonella enterica subsp. arizonae.

As to `CC[C@H](C)[C@H](NC(=O)[C@H](Cc1ccccc1)NC(=O)[C@H](Cc1cnc[nH]1)NC(=O)[C@H](CCCCN)NC(=O)[C@@H](NC(=O)[C@@H](N)Cc1ccccc1)[C@@H](C)CC)C(=O)N[C@@H](Cc1cnc[nH]1)C(=O)N[C@@H](CCCN=C(N)N)C(=O)N[C@@H](Cc1ccccc1)C(N)=O` [FIKHFIHRF], the MIC against Enterococcus faecalis is at least 402 µM; against Escherichia coli W3110 it was at least 402 µM; in [1] it was at least 402 µM; against Staphylococcus aureus, over 402 µM; in [2], at least 402 µM; in [3], at least 402 µM. The MIC in experiment [4], in experiment [5] and in experiment [6] was at least 100 µM each time.

In the case of `CC[C@H](C)[C@H](NC(=O)[C@@H](NC(=O)[C@H](Cc1cnc[nH]1)NC(=O)[C@@H](NC(=O)[C@@H](NC(=O)[C@H](CCCCN)NC(=O)[C@H](CCCN=C(N)N)NC(=O)[C@@H](NC(=O)[C@@H](NC(=O)[C@@H](N)CCCN=C(N)N)[C@@H](C)CC)[C@@H](C)CC)[C@@H](C)CC)[C@@H](C)CC)[C@@H](C)CC)C(N)=O` [RIIRKIIHII], the MIC against Aspergillus fumigatus was 31.4 µM (≈ 40 µg/mL); in the experiment on Bibersteinia trehalosi it was 15.7 µM (≈ 20 µg/mL); in [7], 15.7 µM (≈ 20 µg/mL); with Klebsiella pneumoniae, 9.18 µM (≈ 11.7 µg/mL); in [8], 15.7 µM (≈ 20 µg/mL); in [9], 10.4 µM (≈ 13.3 µg/mL). The MIC was 15.7 µM (≈ 20 µg/mL) in experiment [10]; 15.7 µM (≈ 20 µg/mL) against Pasteurella multocida; 7.85 µM (≈ 9.99 µg/mL) in experiment [11]; 15.7 µM (≈ 20 µg/mL) in experiment [12]; over 15.7 µM against Staphylococcus aureus.

`NC(=O)CC[C@H](NC(=O)[C@H](Cc1c[nH]c2ccccc12)NC(=O)[C@H](Cc1c[nH]c2ccccc12)NC(=O)[C@H](CC(N)=O)NC(=O)[C@H](Cc1ccc(O)cc1)NC(=O)[C@H](Cc1c[nH]c2ccccc12)NC(=O)[C@@H](N)Cc1c[nH]c2ccccc12)C(=O)N[C@@H](CC(=O)O)C(=O)N[C@@H](Cc1c[nH]c2ccccc12)C(N)=O` [WWYNWWQDW]: the MIC is at least 340 µM against Enterococcus faecalis; at least 340 µM in the experiment with Escherichia coli W3110; at least 340 µM in experiment [1]; over 340 µM against Staphylococcus aureus; at least 340 µM in experiment [2]; at least 340 µM in [3]. Further, the MIC in experiment [4], in [5] and in [6] was at least 340 µM throughout.
